Results taken from PubChem BioAssay (NCI).
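Cultured in 96-well plates, cells were exposed to test compound for 48 hours across five concentrations. GI50 marks 50% less growth. TGI is the concentration that stops growth completely.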

Experiments:
Test in all cases: NCI tumour cell line growth inhibition, 48 h
[1] = tested on: SR leukemia
[2] = tested on: HOP-62 NSCLC
[3] = tested on: OVCAR-4 ovarian
[4] = tested on: HCT-15 colon
[5] = tested on: KM12 colon
[6] = tested on: SK-MEL-28 melanoma
[7] = tested on: SK-OV-3 ovarian
[8] = tested on: IGROV1 ovarian
[9] = tested on: MDA-MB-231 breast
[10] = tested on: OVCAR-8 ovarian
[11] = tested on: MDA-MB-435
[12] = tested on: HCT-116 colon
[13] = tested on: BT-549 breast
[14] = tested on: U251 CNS
[15] = tested on: RXF 393 renal
[16] = tested on: M14 melanoma
[17] = tested on: CAKI-1 renal
[18] = tested on: A498 renal
[19] = tested on: K-562 leukemia
[20] = tested on: SF-295 CNS
[21] = tested on: SNB-75 CNS
[22] = tested on: OVCAR-3 ovarian
[23] = tested on: SF-268 CNS
[24] = tested on: HCC-2998 colon
[25] = tested on: HT29 colon
[26] = tested on: UACC-257 melanoma
[27] = tested on: UO-31 renal
[28] = tested on: SW-620 colon
[29] = tested on: SF-539 CNS
[30] = tested on: MOLT-4 leukemia
[31] = tested on: NCI/ADR-RES ovarian
[32] = tested on: NCI-H522 lung
[33] = tested on: RPMI-8226 leukemia
[34] = tested on: UACC-62 melanoma
[35] = tested on: 786-0 renal
[36] = tested on: SK-MEL-2 melanoma
[37] = tested on: ACHN renal
[38] = tested on: OVCAR-5 ovarian
[39] = tested on: SN12C renal
[40] = tested on: LOX IMVI melanoma
[41] = tested on: PC-3 prostate
[42] = tested on: NCI-H226 lung
[43] = tested on: A549 NSCLC
[44] = tested on: HS 578T breast
[45] = tested on: CCRF-CEM leukemia
[46] = tested on: HL-60(TB) leukemia
[47] = tested on: SK-MEL-5 melanoma
[48] = tested on: COLO 205 colon
[49] = tested on: SNB-19 CNS
[50] = tested on: DU-145 prostate
[51] = tested on: MCF7 breast
[52] = tested on: NCI-H460 lung

SMILES: CCCCC(=O)N/N=C/c1cc(I)cc(I)c1O
- GI50 [1]: 1.92 µM
- TGI [1]: 14.3 µM
- GI50 [2]: 3.67 µM
- TGI [2]: 19.8 µM
- GI50 [3]: 0.918 µM
- TGI [3]: 12.7 µM
- GI50 [4]: 0.897 µM
- TGI [4]: > 100 µM
- GI50 [5]: 3.74 µM
- TGI [5]: 53.8 µM
- GI50 [6]: 2.85 µM
- TGI [6]: 17.3 µM
- GI50 [7]: 3.4 µM
- TGI [7]: 20.7 µM
- GI50 [8]: 2.32 µM
- TGI [8]: 17.2 µM
- GI50 [9]: 2.73 µM
- TGI [9]: 29.9 µM
- GI50 [10]: 2.26 µM
- TGI [10]: 13.3 µM
- GI50 [11]: 5.54 µM
- TGI [11]: 23.9 µM
- GI50 [12]: 3.63 µM
- TGI [12]: 21.9 µM
- GI50 [13]: 4.48 µM
- TGI [13]: 29.5 µM
- GI50 [14]: 1.99 µM
- TGI [14]: 16.1 µM
- GI50 [15]: 5.39 µM
- TGI [15]: 27.2 µM
- GI50 [16]: 2.7 µM
- TGI [16]: 14.8 µM
- GI50 [17]: 1.58 µM
- TGI [17]: 10.5 µM
- GI50 [18]: 13.8 µM
- TGI [18]: 44.2 µM
- GI50 [19]: 2.99 µM
- TGI [19]: 15.9 µM
- GI50 [20]: 2.45 µM
- TGI [20]: 12.9 µM
- GI50 [21]: 6.03 µM
- TGI [21]: 26.5 µM
- GI50 [22]: 2.9 µM
- TGI [22]: 16.9 µM
- GI50 [23]: 2.15 µM
- TGI [23]: 21.6 µM
- GI50 [24]: 11.1 µM
- TGI [24]: > 100 µM
- GI50 [25]: 8.46 µM
- TGI [25]: 29.4 µM
- GI50 [26]: 2.56 µM
- TGI [26]: 10.4 µM
- GI50 [27]: 1.28 µM
- TGI [27]: 11.1 µM
- GI50 [28]: 3.91 µM
- TGI [28]: > 100 µM
- GI50 [29]: 2.99 µM
- TGI [29]: 12.8 µM
- GI50 [30]: 2.39 µM
- TGI [30]: 13 µM
- GI50 [31]: 2.58 µM
- TGI [31]: 20.1 µM
- GI50 [32]: 2.91 µM
- TGI [32]: 17.5 µM
- GI50 [33]: 3.95 µM
- TGI [33]: 30.1 µM
- GI50 [34]: 2.24 µM
- TGI [34]: 8.33 µM
- GI50 [35]: 3.39 µM
- TGI [35]: 20.6 µM
- GI50 [36]: 3.22 µM
- TGI [36]: 14.4 µM
- GI50 [37]: 2.4 µM
- TGI [37]: 13.4 µM
- GI50 [38]: 12.6 µM
- TGI [38]: > 100 µM
- GI50 [39]: 3.77 µM
- TGI [39]: 26.1 µM
- GI50 [40]: 2.62 µM
- TGI [40]: 13.4 µM
- GI50 [41]: 3.35 µM
- TGI [41]: 20.9 µM
- GI50 [42]: 5.93 µM
- TGI [42]: 36.7 µM
- GI50 [43]: 3.63 µM
- TGI [43]: 22.4 µM
- GI50 [44]: 7.92 µM
- TGI [44]: 54.4 µM
- GI50 [45]: 1.23 µM
- TGI [45]: 12.5 µM
- GI50 [46]: 2.49 µM
- TGI [46]: 7.27 µM
- GI50 [47]: 3.22 µM
- TGI [47]: 15.3 µM
- GI50 [48]: 3.59 µM
- TGI [48]: 26.9 µM
- GI50 [49]: 3.43 µM
- TGI [49]: 35.6 µM
- GI50 [50]: 4.24 µM
- TGI [50]: 31 µM
- GI50 [51]: 2.72 µM
- TGI [51]: 14.6 µM
- GI50 [52]: 2.25 µM
- TGI [52]: 15.5 µM
